The data set is described as follows: Acid-base titration (pK MCS). It counts as physicochemical. Particulars: methyl cellosolve (MCS) H2O 4/1, excess 0.01M HCl, titrated with 0.01N NaOH; one basic ionizable function.

In turn, “38-Decarboxy-38-hydroxymethyl of teicoplanin pseudoaglycon 2 [Example 3]” came in with a pKMCS of 6.8. In the case of “38-Decarboxy-38-hydroxymethyl of teicoplanin pseudoaglycon 1 [Example 2]”, the pKMCS is given as 6.9.

Values taken from US5869449A, “38-decarboxy-38-hydroxymethyl derivatives of teiocoplanin antibiotics and a process for preparing them” (Gruppo Lepetit S.P.A., priority 1990, dated 1999).
